Key:
Osteocalcin−/− mice = assay: Intracerebro-ventricular (ICV) infusion in Osteocalcin−/− mice, behavioral tests; format: in vivo, mouse
Method: Osteocalcin−/−, Gprc6a−/−, Osteocalcin-mCherry, and Osteocalcin foxed mice have been previously described (Ducy et al., 1996, Nature 382:448-452; Oury et al., 2011, Cell 144:796-809). Mouse genotypes were determined by PCR. For all experiments, controls were littermate female WT, Cre-expressing, or flox/flox. All mice were maintained on a pure 129-Sv genetic background except for the inducible deletion Osteocalcin model (mix background: 25% C57/BL6 and 75% 129sv). For inducible gene deletion mice, tamoxifen was prepared in corn oil and injected intraperitoneally (IP) (1 mg/20g of body weight) over one week. For osteocalcin delivery to pregnant mice, IP injections (240 ng/day) were performed as soon as a plug was present daily until delivery (E0.5-E18.5). For osteocalcin or leptin infusion in adult Osteocalcin−/− or ob/ob mice, pumps (Alzet micro-osmotic pump, Model 1002) delivering osteocalcin (300 ng/hr), leptin (50 ng/hr), or vehicle were surgically installed subcutaneously in the backs of 3-month old mice. […] Leptin and osteocalcin content in sera and tissues were determined by ELISA.
Tail suspension testing was performed as previously described (Mayorga et al., 2001, J. Pharmacology Exper. Therapeutics 298:1101-1107; Stem et al., 1985, Psychopharmacology 85:367-370). […] The parameter recorded was the number of seconds spent immobile. Mice were scored by a highly trained observer, over a 5 min period, blind to the genotype of the mice.
Anxiety and locomotor activity of mice were measured using the open field test (David et al., 2009, Neuron 62:479-493). […] Mice were monitored throughout each test session by video tracking and analyzed using Matlab software. […] The overall motor activity was quantified as the total distance travelled. The anxiety was quantified measuring the number of rearings and the time and distance spent in the center versus periphery of the open field chamber (in %).
Each mouse was allowed to explore the apparatus for 5 min. Global activity was assessed by measuring the number of entries […] (David et al, 2009, Neuron 62:479-493). […]

[1] = Ex vivo dual perfusion of the mouse placenta (maternal-fetal transport); format: in vitro ADME
Method: Maternal-fetal transport of osteocalcin was monitored using ex vivo dual perfusion of the mouse placenta (Goeden & Bonnin, 2013, Nature Protocols 8:66-74). Osteocalcin (300 ng/ml) was injected on the maternal side through the uterine artery in placentas obtained from WT mice at E14.5, E15.5, and E18.5 of pregnancy (n=3 independent perfusions per age). Osteocalcin transport through the placenta was analyzed by measuring the concentration of osteocalcin present in fetal eluates obtained through the umbilical vein, each time point (1-9) corresponding to a 10 minute collection period (at 5 μl/min). Collection time points (from 10 to 30 min of perfusion) were obtained during materal fluid infusion; time points 4-6 (from 30 to 60 min of perfusion) were obtained during osteocalcin infusion into the maternal uterine artery, whereas for time points 7-9 (from 60 to 90 min of perfusion, respectively) the maternal uterine artery was infused with maternal fluid alone.
Any influence of maternal osteocalcin on fetal brain development requires that this hormone cross the placenta. This was investigated through an ex vivo dual perfusion system that monitors the transport of substances across the mouse placenta (Bonnin et al., 2011, Nature 472:347-350; Goeden and Bonnin, […], Nature Protocols 8:66-74).

[2] = test system: Osteocalcin−/− embryos and adult offspring of Osteocalcin−/− mothers; assay: Osteocalcin injections in pregnant Osteocalcin−/− mothers, analysis of offspring; format: in vivo, mouse
Method: Osteocalcin−/−, Gprc6a−/−, Osteocalcin-mCherry, and Osteocalcin foxed mice have been previously described (Ducy et al., 1996, Nature 382:448-452; Oury et al., 2011, Cell 144:796-809). Mouse genotypes were determined by PCR. For all experiments, controls were littermate female WT, Cre-expressing, or flox/flox. All mice were maintained on a pure 129-Sv genetic background except for the inducible deletion Osteocalcin model (mix background: 25% C57/BL6 and 75% 129sv). For inducible gene deletion mice, tamoxifen was prepared in corn oil and injected intraperitoneally (IP) (1 mg/20g of body weight) over one week. For osteocalcin delivery to pregnant mice, IP injections (240 ng/day) were performed as soon as a plug was present daily until delivery (E0.5-E18.5). For osteocalcin or leptin infusion in adult Osteocalcin−/− or ob/ob mice, pumps (Alzet micro-osmotic pump, Model 1002) delivering osteocalcin (300 ng/hr), leptin (50 ng/hr), or vehicle were surgically installed subcutaneously in the backs of 3-month old mice. For the postnatal rescue of cognitive functions in Osteocalcin−/− mice, osteocalcin (10 ng/hour) or vehicle were delivered intrasubventricularly (icv) as previously described (Ducy et al., 2000, Cell 100:197-207). Leptin and osteocalcin content in sera and tissues were determined by ELISA.
Cresyl violet staining to visualize brain morphology was carried out by incubating 20 μm cryosections defatted with 1:1 chloroform:ethanol in cresyl violet acetate (1 g/L) overnight. The stain was differentiated using ethanol and xylene and mounted using DPX mounting medium for histology (Sigma).
To assess apoptosis in WT and Osteocalcin−/− brains, 20 μm cryostat sections were processed using theAPOPTAG® Fluorescein Direct In Situ Apoptosis Detection Kit (Millipore) according to manufacturer's protocol. Images were obtained using Leica DM 4000B, and Image J was used to quantify cell number and intensity of staining.
For western blotting, frozen hippocampi from E18.5 embryos were lysed and homogenized in 250 μl tissue lysis buffer (25 mM Tris HCl 7.5; 100 mM NaF; 10 mM Na4P2O7; 10 mmM EDTA; 1% NP 40). Samples were pooled together in threes by genotype to reduce variability. Proteins were transferred to nitrocellulose membranes and blocked with TBST-5% milk prior to overnight incubation with primary antibody in TBST-5% BSA. HRP-coupled secondary antibodies and ECL were used to visualize the signal.
To further evaluate the importance of maternal osteocalcin for the acquisition of spatial learning and memory in adult offspring, pregnant Osteocalcin^−/− mothers from E0.5 to E18.5 were treated with injections, once a day, of osteocalcin (240 ng/day). Osteocalcin was never injected in these females or their pups after delivery. […] Likewise, the number of apoptotic cells was reduced and the number of NeuN positive cells was increased compared to Osteocalcin^−/− embryos originating from Osteocalcin^−/− mothers that were not injected (FIG. 7I-J).

[3] = Osteocalcin−/− embryos, injected vs not injected Osteocalcin−/− mothers
[4] = mothers injected 240 ng/day once a day E0.5 to E18.5

osteocalcin: Recombinant osteocalcin bacterially produced, cleaved from the GST subunit; completely undercarboxylated at all three sites; full-length mouse osteocalcin (YLGASVPSPDPLEPTREQCELNPACDELSDQYGLKTAYKRIYGITI)
anxiety and depression features (Osteocalcin−/− mice; Osteocalcin−/− mice, ICV 10 ng/hour, week-long treatment): corrected the anxiety and depression features | leakage of centrally delivered hormone into the general circulation (osteocalcin in blood) (Osteocalcin−/− mice; Osteocalcin−/− mice, ICV infusion): no leakage | defects in anxiety, depression, learning, and memory (Osteocalcin−/− mice; direct administration to the brains of adult Osteocalcin−/− mice): rescued defects in anxiety, depression, learning, and memory | transport across the placenta ([1]; day 14.5 of gestation, 300 ng/ml through uterine artery): begins to cross the placenta | transplacental transfer to the fetal circulation ([1]; day 15.5 or 18.5 of gestation): larger transplacental transfer | Caspase-3 cleaved protein level in the hippocampus (Western blot) ([2]; Osteocalcin−/− E18.5 embryos, injected vs not injected mothers): decrease in Caspase-3 cleaved protein level | number of NeuN positive cells [2, 3]: increased | number of apoptotic cells [2, 3]: reduced | number of apoptotic cells ([2]; Osteocalcin−/− embryos, injected vs not injected Osteocalcin−/− mothers, listed as Uncarboxylated osteocalcin): prevent this neuronal apoptosis | thickness defect in the CA3 and CA4 regions of the hippocampus ([2]; adult Osteocalcin−/− originating from Osteocalcin−/− mothers): rescue of the thickness defect | cerebral ventricle enlargement (cresyl violet) ([2]; brains of E18.5 Osteocalcin−/− embryos, injected mothers): rescue of the cerebral ventricle enlargement | anxiety or depression phenotypes of Osteocalcin−/− offspring [2, 4]: did not have any beneficial effect | deficit in learning and memory of Osteocalcin−/− offspring [2, 4]: rescued over two third of their deficit
